Measurements published in patent US20220226473A1, “Nucleic acid nanocarrier drug and preparation method thereof, pharmaceutical composition and application thereof” (BAI YAO ZHI DA (BEIJING) NANOBIO TECHNOLOGY CO., LTD., priority 2018, published 2022).
Like-named read-outs stand apart in the source and are kept apart here. {Biotin} = biotin of the strand; {Cy5} = Cy5 fluorescent label

Legend:
HepG2 cells = test: Cytotoxicity of RNAh-Biotin-quasar670-flu nanoparticles; assay type: cell-based
Description: I. Samples to be tested: small molecular […] chemical drug and RNAh-Biotin-quasar670-flu nanoparticles.
In order to further determine that the RNA nanoparticles without carrying the […] have no apparent cytotoxicity to the HepG2 cells, the inventor further designs a toxicity experiment of the RNAh-Biotin-FAM (FAM is a fluorescent marker), a targeted fluorescent carrier, to the HepG2 cells (a drug administration gradient in the experiment is as follows: 100 μM, 31.6 μM, 10 μM, 3.16 μM, 1 μM, 316 nM, 100 nM, 31.6 nM, 10 nM, and 0 (10% PBS)), the results thereof are shown in Table 134 and FIG. 95.

MOLT4 cells = test: Cytotoxicity of RNAh-Bio-670-MTX nanoparticles, CTG; assay type: cell-based, human; conditions: 200 nM, 72 hours
Description: 1) Using the RPMI1640+10% FBS+1% PS medium to culture the MOLT4 cells at 37 DEG C. and 5% CO2.
2) Collecting the cells, centrifuging at 800 rpm for 5 minutes, resuspending the medium, adjusting the cell concentration, and adding to the 96-we plate in a volume of 5000 cells per 90 μL. […]
4) After being cultured for 72 hours, adding 100 μL of the CTG reagent to each well, shaking for 2 minutes, and standing at the room temperature for 10 minutes, herein a whole process is protected from light.
5) Finally using Soft Max Pro5 software to read.

SGC-7901 cells [1] = test: Cytotoxicity of DNAh-Biotin-EGFRapt-Cy5-THP nanoparticles; assay type: cell-based, human; conditions: for IC50: SGC-7901
Description: (§1) 2) adjusting the cell density to 2.22×10^4/mL with a growth medium:
(§2) 3) planting 90 μL/well of cell suspension into the 96-well plate, herein the number of cells per well in the plate is 2000;
(§3) 4) placing the planted cell plate in the incubator at 37 DEG C. and incubating overnight;
(§4) 5) performing 3.16-fold gradient dilution on the compound at 9 concentration points;
(§5) 6) taking out the cell culture plate, and adding 10 μL/well of 10× concentration drug working solution to the corresponding wells of the cell culture plate, herein three replicate holes are made for each concentration, and the final drug action concentration is shown in the table below.
(§6) 7) placing the cell culture plate in the incubator and continuously incubating for 96 hours;
(§7) 8) placing the CellTiter 96@D AQueous One Solution reagent at the room temperature and thawing for 90 minutes or thawing in a water bath at 37 DEG C., and then equilibrating at the room temperature for 30 minutes;
(§8) 9) adding 20 μL/well of the CellTiter 96® AQueous One Solution reagent to the cell culture plate;
(§9) 10) placing the cell culture plate in the incubator at 37 DEG C. and continuously incubating for 3 hours;
(§10) 11) using the microplate reader to read a OD490 value of each well in the cell plate; and
(§11) 12) data processing and analysis.
(§12) GraphPad Prism5.0 software is used to process data graphically. In order to calculate the IC50, […] non-linear regression analysis is performed on the data to match a suitable dosage-effect curve. A calculation formula of the cell survival rate is as follows, the IC50 may be automatically calculated in the GraphPad Prism 5.0.
(§13) Cell survival rate (%)=(ODtest well−ODblank control)/(ODnegative control−ODblank control)×100%.
(§14) II. Experiment Device and Method Same as (II)

SKOV3 cells [2] = test: as above; assay type: cell-based, human; conditions: for IC50: SKOV3
Description: as §1, §2, §3, §4, §5, §6, §7, §8, §9, §10, §11, §12, §13, §14

SGC7901 cells = test: Cytotoxicity of RNAh-Biotin-quasar670-hdcp nanoparticles; assay type: cell-based
MCF-7 cells [3] = test: Cytotoxicity of RNAh-Bio-670-THP and RNAh-Bio-670-DNR nanoparticles, CTG; assay type: cell-based, human; conditions: MCF-7, 72 h, 200 nM
Description: 3) Diluting a sample to be tested with the culture medium on the next day, respectively adding 200 nM to each sample, herein each sample has 4 replicate wells for replication.
Samples to be tested: small molecular drug THP and RNAh-Bio-670-THP nanoparticles;
1) Except that it is the MCF-7 cells, the rest are the same as (III).

BXPC3 cells = test: Cytotoxicity of RNAh-Bio-670-gemcitabine nanoparticles; assay type: cell-based; conditions: Homo sapiens, BXPC-3
Description: I. Samples to be tested: small molecular drug gemcitabine and […] nanoparticles

MCF-7 cells [4] = test: Flow cytometry binding of DNAh-Bio-EGFRapt-Cy5-EPB nanoparticles; assay type: cell-based, human; conditions: 2 hours
Description: (§15) MCF-7 (source: ATCC, and article number: HTB-22), NCI-H1975 (source: ATCC, and article number: CRL-5008); a culture medium is MEM+10% FBS, and culture conditions are 37 DEG C., 5% CO2, and saturated humidity.
(§16) 1. Adjusting a cell state to a logarithmic growth phase, changing the medium to a medium without biotin and folic acid, and incubating overnight in the incubator at 37 DEG C;
(§17) 2. dissolving the substances to be tested and preparing the to-be-tested substance stock solution;
(§18) 3. digesting and collecting the single-cell suspension and counting, adjusting the cell density to 2×10^5/mL, planting 1 mL/well into the 24-well plate;
(§19) 4. respectively adding the substances to be tested to the corresponding cell wells, herein the final concentration is 2 μM, shaking and mixing uniformly;
(§20) 5. placing the cell plate in the incubator at 37 DEG C. and incubating for 2 hours;
(§21) 6. after the incubation, pancreatin-digesting and collecting the cell suspension;
(§22) 7. centrifugally collecting a cell precipitation, and washing twice with the PBS;
(§23) 8. finally, resuspending the cell precipitation with 300 μL of the PBS, and performing a flow cytometric on-machine detection;
(§24) 9. fluorescence carrier or epirubicin detection channels: excitation light wavelength: 488 nm, and emission light channel: 560 nm; and […]

NCI-H1975 cells [5] = test: as above; assay type: cell-based; conditions: 2 hours
Description: as §15, §16, §17, §18, §19, §20, §21, §22, §23, §24

SGC-7901 cells [6] = test: Flow cytometer binding of pirarubicin-loaded DNA nanoparticles; assay type: cell-based, human; conditions: SGC-7901, 2 μM, 2 hours
Description: (§25) 1). Adjusting a cell state to a logarithmic growth phase, changing the medium to a medium without biotin and folic acid, and incubating overnight in the incubator at 37 DEG C;
(§26) 2). dissolving the substances to be tested and preparing the to-be-tested substance stock solution;
(§27) 3). digesting and collecting the single-cell suspension and counting, adjusting the cell density to 2×10^5/mL, planting 1 mL/well into the 24-well plate;
(§28) 4). respectively adding the substances to be tested to the corresponding cell wells, herein the final concentration is 2 μM, shaking and mixing uniformly;
(§29) 5). placing the cell plate in the Incubator at 37 DEG C. and Incubating for 2 hours;
(§30) 6). after the incubation, pancreatin-digesting and collecting the cell suspension;
(§31) 7). centrifugally collecting a cell precipitation, and washing twice with the PBS;
(§32) 8). finally, resuspending the cell precipitation with 300 μL of the PBS, and performing a flow cytometric on-machine detection; herein detection channels of fluorescence carrier or pirarubicin targeted drug: excitation light wavelength: 488 nm, and emission light channel: 560 nm; and […]

SKOV3 cells [7] = test: as above; assay type: cell-based, human; conditions: SKOV3, 2 μM, 2 hours
Description: as §25, §26, §27, §28, §29, §30, §31, §32

NCI-H1975 cells [8] = test: Cytotoxicity of DNAh-Bio-EGFRapt-Cy5-EPB nanoparticles, CellTiter 96 AQueous One Solution; assay type: cell-based; conditions: NCI-H1975, 96 hours
Description: GraphPad Prism5.0 software is used to process data graphically. In order to calculate the IC50, “W”-shaped non-linear regression analysis is performed on the data to match a suitable dosage-effect curve. A calculation formula of the cell survival rate is as follows, the IC50 may be automatically calculated in the GraphPad Prism 5.0.

[9] = administration concentration 5 μM

O=c1[nH]cc(F)c(=O)[nH]1 [pentafluorouracil]
Cell inhibition rate (%) when administration concentration is 5 μM (HepG2 cells; HepG2, 72 h, 5 μM): 39.02% | cell inhibition rate (%), HepG2 cells (HepG2 cells; [9]): 39.02%

CN(Cc1cnc2nc(N)nc(N)c2n1)c1ccc(C(=O)N[C@@H](CCC(=O)O)C(=O)O)cc1 [MTX, methotrexate]
effect on proliferation of MOLT4 cells (MOLT4 cells): significant inhibitory effect on the proliferation of the MOLT4 cells

COc1cccc2c1C(=O)c1c(O)c3c(c(O)c1C2=O)C[C@@](O)(C(=O)CO)C[C@@H]3O[C@H]1C[C@H](N)[C@H](O[C@@H]2CCCCO2)[C@H](C)O1 [THP, pirarubicin]
toxicity to SGC-7901 cells (SGC-7901 cells [1]): toxic to the SGC-7901 cells | IC50 (SGC-7901 cells [1]; Homo sapiens): 27.4 nM | toxicity to SKOV3 cells (SKOV3 cells [2]): toxic to the SKOV3 cells | IC50 (SKOV3 cells [2]; Homo sapiens, SK-OV-3): 23.7 nM

CC[C@@]1(O)C(=O)OCc2c1cc1n(c2=O)Cc2cc3cc(O)ccc3nc2-1 [10-hydroxycamptothecin]
Cell inhibition rate (%) when administration concentration is 5 μM (SGC7901 cells; SGC7901, 72 h, 5 μM): 75.43% | cell inhibition rate (%), SGC7901 cells (SGC7901 cells; [9]): 75.43%

COc1cccc2c1C(=O)c1c(O)c3c(c(O)c1C2=O)C[C@@](O)(C(C)=O)C[C@@H]3O[C@H]1C[C@H](N)[C@H](O)[C@H](C)O1 [Daunorubicin (DNR)]
cell survival rate (%) (MCF-7 cells [3]): 17.33%

Nc1ccn([C@@H]2O[C@H](CO)[C@@H](O)C2(F)F)c(=O)n1 [gemcitabine]
IC50 (BXPC3 cells; BXPC3, 72 h, read-out: IC50): 34.2 nM | inhibition at 5 µM (BXPC3 cells; administration concentration 5 μM, read-out: cell inhibition rate, BxPC3 cells): 83% | IC50 (BXPC3 cells; read-out: IC50, BxPC3 cell proliferation): 34.1 nM

B1: DNAh-Bio-EGFRapt-Cy5: targeted fluorescent carrier: DNA nanoparticle, strands SEQ ID NO: 172-174, 5′ biotin, EGFRapt, 3′ Cy5, thio-modified ends (nucleic acid)
chain 1: CGCGCGCCCACGAGCGTTCCGGGCGCGCCTTAGTAACGTGCTTTGATGTCGATTCGACAGGAGGC
chain 2: GCGCCCGGTTCGCCGCCAGCCGCCGC
chain 3: GCGGCGGCAGGCGGCCATAGCCGTGGGCGCGCG
modifications: chain 1: DNA, 5' {Biotin}, backbone not given here; chain 2: DNA, backbone not given here; chain 3: DNA, 3' {Cy5}, backbone not given here; first and last three bases thio-modified, DNA nanoparticle with EGFR aptamer, further chemistry not fully specified
binding rate to MCF-7 cells (MCF-7 cells [4]; 2 μM): 100% | Binding rate (%) (MCF-7 cells [4]; MCF-7, 2 μM): 99.97% | binding rate to NCI-H1975 cells (NCI-H1975 cells [5]; 2 μM): 100% | Binding rate (%) (NCI-H1975 cells [5]; NCI-H1975, 2 μM): 100% | Binding rate (%) (SGC-7901 cells [6]): 99.99% | Binding rate (%) (SKOV3 cells [7]): 100% | IC50 (NCI-H1975 cells [8]): > 316 nM | IC50 (SGC-7901 cells [1]): > 316 nM | IC50 (SKOV3 cells [2]): > 1000 nM
